Results: US12649751B2 (Arcus Biosciences, Inc., priority 2022, dated 2026)
Where two headings read alike, the source gives them in different places.

Legend:
HPK1 = HPK1 (Homo sapiens, UniProt Q92918); assay: HPK1 Biochemical Assay (ADP-Glo luminescence; low ATP 10 μM or high ATP 200 μM); conditions: HPK1 ADP-Glo assay
[1] = test system: p-SLP-76 (Ser376) in Jurkat cells; assay: pSLP76 Cellular Assay (AlphaLISA SureFire Ultra p-SLP-76 (Ser376), anti-CD3 activated Jurkat cells); assay type: cell-based; conditions: Homo sapiens; pSLP76 (Ser376) AlphaLISA, anti-CD3 activated Jurkat cells; read-out: Cellular Potency
How it was run: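 Jurkat cells, serum-starved overnight in Opti-MEM then in HBSS, preincubated 1 h at 37 °C with 22-point 2-fold compound dilutions, then stimulated with anti-CD3 (0.025 mg/ml added solution) for 45 min. Lysate p-SLP-76 (Ser376) measured by AlphaLISA at 570 nm; IC50 from 4-parameter logistic fit.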

[2] = high ATP (200 μM ATP, 5 nM HPK1), read-out: Biochemical Potency (high ATP)
[3] = low ATP (10 μM ATP, 2 nM HPK1), read-out: Biochemical Potency (low ATP)

HPK1, sequence (Q92918 whole entry, species assumed): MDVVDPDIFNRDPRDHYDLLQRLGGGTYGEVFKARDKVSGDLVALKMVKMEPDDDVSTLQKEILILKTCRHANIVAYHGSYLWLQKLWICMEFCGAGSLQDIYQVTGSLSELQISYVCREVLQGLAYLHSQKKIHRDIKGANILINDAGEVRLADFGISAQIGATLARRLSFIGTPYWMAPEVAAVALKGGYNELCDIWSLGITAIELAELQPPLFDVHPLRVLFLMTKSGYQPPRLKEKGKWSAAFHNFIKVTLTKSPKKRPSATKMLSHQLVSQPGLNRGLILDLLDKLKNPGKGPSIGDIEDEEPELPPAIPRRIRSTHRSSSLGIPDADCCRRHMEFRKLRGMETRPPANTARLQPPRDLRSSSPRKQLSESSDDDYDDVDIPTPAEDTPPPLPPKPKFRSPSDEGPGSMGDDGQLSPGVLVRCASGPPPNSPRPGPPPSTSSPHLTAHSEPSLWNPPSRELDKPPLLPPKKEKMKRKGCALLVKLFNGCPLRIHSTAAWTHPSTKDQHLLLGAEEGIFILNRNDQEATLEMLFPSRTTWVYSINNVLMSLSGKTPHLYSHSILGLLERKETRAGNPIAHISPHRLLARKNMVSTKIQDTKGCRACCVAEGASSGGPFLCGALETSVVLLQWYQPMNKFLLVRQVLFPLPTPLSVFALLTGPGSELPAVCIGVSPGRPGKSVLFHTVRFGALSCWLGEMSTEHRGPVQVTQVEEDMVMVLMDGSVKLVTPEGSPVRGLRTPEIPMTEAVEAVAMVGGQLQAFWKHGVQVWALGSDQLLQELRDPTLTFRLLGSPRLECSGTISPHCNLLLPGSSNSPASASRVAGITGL

Row | Compound | IC50 (HPK1; [2]) | IC50 [1] | IC50 (HPK1; [3])
1 | Cc1cccnc1-c1nc2cc(Nc3cc(C4CCC(O)CC4)nc(N4C[C@@H]5C[C@H]4CN5C)n3)ncc2s1 (some centres unmarked) [Example 507] | < 100 nM | 100 to 1000 nM | 
2 | c1cnn(-c2nc3cc(Nc4cnc(C5CCOCC5)c(N5C[C@@H]6C[C@H]5CN6)n4)ncc3s2)c1 [Example 508] | < 100 nM | < 100 nM | 
3 | CC(C)(O)c1cccc(-c2nc3cc(Nc4cnc(C5CCOCC5)c(N5C[C@@H]6C[C@H]5CN6)n4)ncc3s2)c1 [Example 509] | < 100 nM | < 100 nM | < 100 nM
4 | Cc1cccnc1-c1nc2cc(Nc3cnc(C4CCOCC4)c(N4C[C@@H]5C[C@H]4CN5)n3)ncc2s1 [Example 510] | < 100 nM | < 100 nM | < 100 nM
5 | CCN1C[C@@H]2C[C@H]1CN2c1nc(C)cc(Nc2cc3nc(-c4cccc(C(=O)N5CCC[C@@H](C)C5)c4)sc3cn2)n1 [Example 511] | < 100 nM | 100 to 1000 nM | 
6 | CCN1C[C@@H]2C[C@H]1CN2c1nc(C)cc(Nc2cc3nc(-c4cccc(C(=O)N5CCC[C@H](C)C5)c4)sc3cn2)n1 [Example 512] | < 100 nM | < 100 nM | 
7 | CCN1C[C@@H]2C[C@H]1CN2c1nc(C)cc(Nc2cc3nc(-c4cccc(C(=O)N[C@H](C)c5ccccc5)c4)sc3cn2)n1 [Example 516] | < 100 nM | 100 to 1000 nM | 
8 | CCN1C[C@@H]2C[C@H]1CN2c1nc(C)cc(Nc2cc3nc(-c4cccc(C(=O)N5CCC(C)CC5)c4)sc3cn2)n1 [Example 517] | < 100 nM | < 100 nM | 
9 | CCN1C[C@@H]2C[C@H]1CN2c1nc(C)cc(Nc2cc3nc(-c4cccc(C(=O)N5CCCC5(C)C)c4)sc3cn2)n1 [Example 520] | < 100 nM | < 100 nM | 
10 | CCN1C[C@@H]2C[C@H]1CN2c1nc(C)cc(Nc2cc3nc(-c4cccc(C(=O)N5CCC(C)(C)C5)c4)sc3cn2)n1 [Example 521] | < 100 nM | 100 to 1000 nM | 
11 | CCN1C[C@@H]2C[C@H]1CN2c1nc(C)cc(Nc2cc3nc(-c4cccc(C(=O)Nc5ccccc5)c4)sc3cn2)n1 [Example 522] | < 100 nM | 100 to 1000 nM | 
12 | CCN1C[C@@H]2C[C@H]1CN2c1nc(C)cc(Nc2cc3nc(-c4cccc(C(=O)N(C)CC5CCOCC5)c4)sc3cn2)n1 [Example 523] | < 100 nM | 100 to 1000 nM | 
13 | CCN1C[C@@H]2C[C@H]1CN2c1nc(C)cc(Nc2cc3nc(-c4cccc(C(=O)N5CCC[C@@H]5C)c4)sc3cn2)n1 [Example 526] | < 100 nM | < 100 nM | 
14 | CCN1C[C@@H]2C[C@H]1CN2c1nc(C)cc(Nc2cc3nc(-c4cccc(C(=O)N5CCOC[C@H]5C)c4)sc3cn2)n1 [Example 527] | < 100 nM | 100 to 1000 nM | 
15 | CCN1C[C@@H]2C[C@H]1CN2c1nc(C)cc(Nc2cc3nc(-c4cccc(C(=O)N(C)C5CCOCC5)c4)sc3cn2)n1 [Example 528] | < 100 nM | 100 to 1000 nM | 
16 | CCN1C[C@@H]2C[C@H]1CN2c1nc(C)cc(Nc2cc3nc(-c4cccc(C(=O)N5C[C@@H]6OCCO[C@@H]6C5)c4)sc3cn2)n1 [Example 529] | < 100 nM | < 100 nM | 
17 | CCN1C[C@@H]2C[C@H]1CN2c1nc(C)cc(Nc2cc3nc(-c4cccc(C(=O)N5CCC6(CCOC6)C5)c4)sc3cn2)n1 (some centres unmarked) [Example 530] | < 100 nM | 100 to 1000 nM | 
18 | CCN1C[C@@H]2C[C@H]1CN2c1nc(C)cc(Nc2cc3nc(-c4cccc(C(=O)N5CCCOCC5)c4)sc3cn2)n1 [Example 531] | < 100 nM | 100 to 1000 nM | 
19 | CCN1C[C@@H]2C[C@H]1CN2c1nc(C)cc(Nc2cc3nc(-c4cccc(C(=O)NC5CCOCC5)c4)sc3cn2)n1 [Example 532] | < 100 nM | 100 to 1000 nM | 
20 | CCN1C[C@@H]2C[C@H]1CN2c1nc(C)cc(Nc2cc3nc(-c4cccc(C(=O)N5CC[C@H](C)C5)c4)sc3cn2)n1 [Example 533] | < 100 nM | < 100 nM | 
21 | CCN1C[C@@H]2C[C@H]1CN2c1nc(C)cc(Nc2cc3nc(-c4cccc(C(=O)N5CC[C@H](OC)C5)c4)sc3cn2)n1 [Example 534] | < 100 nM | 100 to 1000 nM | 
22 | CCN1C[C@@H]2C[C@H]1CN2c1nc(C)cc(Nc2cc3nc(-c4cccc(C(=O)N5CCC[C@@H]5COC)c4)sc3cn2)n1 [Example 535] | < 100 nM | < 100 nM | 
23 | CCN1C[C@@H]2C[C@H]1CN2c1nc(C)cc(Nc2cc3nc(-c4cccc(C(=O)N5CCC(F)CC5)c4)sc3cn2)n1 [Example 538] | < 100 nM | < 100 nM | 

Results, then the compound that gave them:

Row | IC50 (HPK1; [2]) | IC50 [1] | IC50 (HPK1; [3]) | Compound
24 | < 100 nM | < 100 nM |  | CCN(CC)C(=O)c1cccc(-c2nc3cc(Nc4cc(C)nc(N5C[C@@H]6C[C@H]5CN6CCO)n4)ncc3s2)c1 [Example 504]
25 | < 100 nM | < 100 nM |  | CCN(C)C(=O)c1cccc(-c2nc3cc(Nc4cc(C)nc(N5C[C@@H]6C[C@H]5CN6CCO)n4)ncc3s2)c1 [Example 505]
26 | < 100 nM | 100 to 1000 nM |  | COCCN1C[C@@H]2C[C@H]1CN2c1nc(C)cc(Nc2cc3nc(-c4cccc(C(=O)N(C)C)c4)sc3cn2)n1 [Example 506]
27 | < 100 nM | < 100 nM |  | CCN1C[C@@H]2C[C@H]1CN2c1nc(C)cc(Nc2cc3nc(-c4ccc(F)c(C(=O)NC5CCCC5)c4)sc3cn2)n1 [Example 513]
28 | < 100 nM | 100 to 1000 nM |  | CCN1C[C@@H]2C[C@H]1CN2c1nc(C)cc(Nc2cc3nc(-c4ccnc(C(=O)NC5CCCC5)c4)sc3cn2)n1 [Example 514]
29 | < 100 nM | < 100 nM |  | CCN1C[C@@H]2C[C@H]1CN2c1nc(C)cc(Nc2cc3nc(-c4cccc(C(=O)NC5CCCC5)c4)sc3cn2)n1 [Example 515]
30 | < 100 nM | < 100 nM |  | CCc1cc(C(=O)N(C)C)cc(-c2nc3cc(Nc4cc(C)nc(N5C[C@@H]6C[C@H]5CN6CC)n4)ncc3s2)c1 [Example 518]
31 | < 100 nM | 100 to 1000 nM |  | CCN1C[C@@H]2C[C@H]1CN2c1nc(C)cc(Nc2cc3nc(-c4cc(Cl)cc(C(=O)N(C)C)c4)sc3cn2)n1 [Example 519]
32 | < 100 nM | < 100 nM |  | CCN1C[C@@H]2C[C@H]1CN2c1nc(C)cc(Nc2cc3nc(-c4cccc(C(=O)N[C@H](C)C5CC5)c4)sc3cn2)n1 [Example 524]
33 | < 100 nM | < 100 nM |  | CCN1C[C@@H]2C[C@H]1CN2c1nc(C)cc(Nc2cc3nc(-c4cccc(C(=O)N[C@@H](C)C5CC5)c4)sc3cn2)n1 [Example 525]
34 | < 100 nM | < 100 nM |  | CCN1C[C@@H]2C[C@H]1CN2c1nc(C)cc(Nc2cc3nc(-c4cc(C(=O)N(C)C)cc(C5CC5)c4)sc3cn2)n1 [Example 536]
35 | < 100 nM | 100 to 1000 nM |  | Cc1cc(-c2nc3cc(Nc4cc(C)nc(N5C[C@@H]6C[C@H]5CN6CCO)n4)ncc3s2)cc(C2CC2)n1 [Example 537]
36 | < 100 nM | < 100 nM |  | Cc1cc(Nc2cc3nc(-c4cccc(C(=O)N[C@@H]5CCCOC5)c4)sc3cn2)nc(N2C[C@@H]3C[C@H]2CN3CCO)n1 [Example 540]
